# Data taken from patent publication EP0320006A2, “Uses of 1,4-dihydropyridines” (LABORATOIRES SYNTEX, priority 1987, dated 1989).
# Marks after values point to notes of the source that are not given here.
# Assays:
# Male CD1 mice = test: Anticonvulsant activity against pentylenetetrazole (PTZ) induced seizures; assay type: in vivo; details: for % Clonic: incidence of clonic seizures; for % Tonic: incidence of tonic seizures
# Protocol: The amount of test compound needed to prevent convulsions induced by a fixed amount of pentylenetetrazol can then be determined.
# (A) Male CD1 mice (Charles River) are randomly divided into groups of at least 20, and treated with 500 µg/Kg of (S,RS)-2,6-dimethyl-3-carbomethoxy-4-(3-nitrophenyl)-5-(3-[4-(2-tetrahydropyran-2-yloxyethyl)-phenoxy]propoxycarbonyl)-1,4-dihydropyridine (the compound is dissolved in 0.1 mL of ethanol and diluted with 99.9 mL saline and injected intraperitoneally) before subcutaneous administration of 100 mg/Kg pentylenetetrazole ("PTZ", a known convulsant) under the following dosing schedules: (A) 15 minutes prior to PTZ administration; (B) 60 minutes prior to PTZ administration; and (C) b.i.d. for three days prior to PTZ administration, a further dose being given on a fourth day 15 minutes prior to PTZ administration. After PTZ administration, the mice are observed for at least 30 minutes, and the incidence of clonic seizures, tonic seizures, and death is noted. The experiment is terminated by pentobarbitone overdose.
# dogs = test: Toxicology: three-month oral dosing; assay type: in vivo
# [1] = system: CA₁ pyramidal cells in the hippocampus; test: Neuroprotection from ischemic damage: delayed neuronal death after bilateral carotid occlusion; assay type: in vivo, Mongolian gerbils; details: then B.I.D. three days post-ischemia
# Protocol: This experimental test is described in the literature by Kirino, T. Brain Research, 239, 57-69 (1982). A detailed description is set forth in Example 3.
# Mongolian gerbils of either sex (50-80 g) are treated with a test compound (or control) either intraperitoneally (IP) at 500 mg/kg 15 minutes prior to induction of ischemia followed by B.I.D. dosing for three days post-ischemia, or orally at 5 mg/kg twice daily for 3 out of 4 days and then 15 minutes prior to cerebral ischemia on the 4th day followed by B.I.D. dosing for three days post-ischemia. To facilitate induction of forebrain ischemia the animals are then anesthetized with halothane (5% in 30:70 oxygen:nitrous oxide) delivered by face mask. Following rapid induction, the halothane is decreased to 1.5-2% and maintained at that level for the remainder of the experiment. The left and right common carotid arteries are exposed in the paratracheal region through a ventral midline cervical skin incision and freed from the accompanying vagosympathetic nerve trunks. A loose ligature is placed around the arteries to facilitate identification at the time of occlusion.
# The carotid arteries are then bilaterally occluded for 5 minutes using microvascular clips (Ackland C-2-V, Weiss, London). Blood flow is then restored, the wound dusted with antibiotic powder (Cicatrin, Calmic Medical Division, The Wellcome Foundation Ltd., London), and sutured. The subjects are then caged individually and allowed food and water ad libitum. […]
# The extent of neuronal death is determined by counting microscopically (at 40x power) all normal and abnormal cells in five fields per hemisphere of the hippocampal CA₁ subfield from the paramedian area to its junction with CA₂ neurons. The field counts are then summed and the mean percentage of dead cells calculated (n=10 fields per brain). Statistical significance was calculated using the Student's t test for unpaired samples, with significance taken at p less than 0.05.
# [2] = schedule A: 500 µg/Kg intraperitoneally 15 minutes prior to PTZ 100 mg/Kg s.c.
# [3] = schedule B: 500 µg/Kg intraperitoneally 60 minutes prior to PTZ 100 mg/Kg s.c.
# [4] = schedule C: 500 µg/Kg intraperitoneally b.i.d. for three days, further dose on fourth day 15 minutes prior to PTZ 100 mg/Kg s.c.
compound,measurement,setting,value
"COC(=O)C1=C(C)NC(C)=C(C(=O)OCCCOc2ccc(CCOC3CCCCO3)cc2)[C@H]1c1cccc([N+](=O)[O-])c1 (mixture of isomers) [X, (S,RS)-2,6-dimethyl-3-carbomethoxy-4-(3-nitrophenyl)-5-[3-(4-[2-(tetrahydropyran-2-yloxy)ethyl]phenoxy)propoxycarbonyl]-1,4-dihydropyridine]",anticonvulsant activity,"Male CD1 mice; PTZ test in mice, statement in words",demonstrates anticonvulsant activity
same,% Death,Male CD1 mice; [2],38.1* %
same,% Clonic,Male CD1 mice; [2],90.5%
same,% Tonic,Male CD1 mice; [2],90.5%
same,% Death,Male CD1 mice; [3],35* %
same,% Clonic,Male CD1 mice; [3],80%
same,% Tonic,Male CD1 mice; [3],40*** %
same,% Death,Male CD1 mice; [4],60%
same,% Clonic,Male CD1 mice; [4],65** %
same,% Tonic,Male CD1 mice; [4],55%
same,pathological change,dogs; oral dosing of dogs for three months at 1.5 and 10 mg/kg/day,did not produce any pathological change
same,urine analysis,"dogs; oral dosing of dogs for three months, all doses",normal
same,Ophthalmoscopy,"dogs; oral dosing of dogs for three months, all doses, throughout the study",remained normal
same,Percentage abnormal neurone count,"[1]; intraperitoneal administration, PEG 300 + water, 500 mg/kg 15 minutes prior to ischemia, 5 minutes occlusion, counted at 72 hours",6.6 ± 0.8%
same,Percentage abnormal neurone count,"[1]; intraperitoneal administration, alcoholic vehicle, 500 mg/kg 15 minutes prior to ischemia, 5 minutes occlusion, counted at 72 hours",5.6 ± 0.3%
same,Percentage abnormal neurone count,"[1]; oral, PEG 300 + vehicle, 5 mg/kg twice daily 3 out of 4 days, 15 minutes prior to ischemia on 4th day",58.0 ± 5.0%
